Reference: publication PMC8308625, “Preclinical Studies in Anti-Trypanosomatidae Drug Development” (Pharmaceuticals, 2021)
Like-named read-outs stand apart in the source and are kept apart here.

Experiments:
[1] = test system: Cell division cycle 42 (GTP binding protein, 25kDa); design: method as in pubchem.ncbi.nlm.nih.gov; conditions: ref pubchem.ncbi.nlm.nih.gov; cited from earlier work
[2] = biological target: Neuropeptide S receptor isoform A; design: method as in pubchem.ncbi.nlm.nih.gov; conditions: ref pubchem.ncbi.nlm.nih.gov; cited from earlier work
[3] = biological target: Aldehyde dehydrogenase 1 family, member A1; design: method as in pubchem.ncbi.nlm.nih.gov; conditions: ref pubchem.ncbi.nlm.nih.gov; cited from earlier work
[4] = biological target: Sphingosine-1-phosphate receptor 4; design: method as in pubchem.ncbi.nlm.nih.gov; conditions: ref pubchem.ncbi.nlm.nih.gov; cited from earlier work
[5] = test system: C. albicans; design: method as in pubchem.ncbi.nlm.nih.gov; conditions: ref pubchem.ncbi.nlm.nih.gov; read-out: EC50 C. albicans Growth in the Presence of Fluconazole; cited from earlier work
[6] = test system: Hsf1 protein; design: method as in pubchem.ncbi.nlm.nih.gov; conditions: ref pubchem.ncbi.nlm.nih.gov; cited from earlier work
[7] = biological target: Replicative DNA helicase; design: method as in pubchem.ncbi.nlm.nih.gov; conditions: ref pubchem.ncbi.nlm.nih.gov; cited from earlier work
[8] = design: method as in data provided by the DNDi program, non-published; conditions: ref data provided by the DNDi program, non-published; cited from earlier work
[9] = Nonspecific cytotoxicity in murine macrophages (MTT); conditions: mouse, J774.1 murine macrophages
Experimental: (§1) Cell viability was then assessed using the 3-(4,5-dimethylthiazol-2-yl)-2,5-diphenyltetrazolium bromide (MTT) colorimetric assay [1]. […] All assays were performed in triplicate [35].

[10] = test system: L. infantum reference strain (MHOM/BR/2002/LPC-RPV); assay: Growth inhibition of L. infantum reference strain promastigotes (resazurin); conditions: for Selectivity Index MΦ/Reference: EC50 J774.1 macrophages versus L. infantum reference strain; for EC50: Leishmania infantum, read-out: EC50 L. infantum Reference
[11] = test system: L. infantum veterinary isolate (MCAN_UY_2015_gPL8); assay: Growth inhibition of L. infantum veterinary isolate promastigotes (resazurin); conditions: for Selectivity Index MΦ/Veterinary: EC50 J774.1 macrophages versus L. infantum veterinary isolate; for EC50: Leishmania infantum, read-out: EC50 L. infantum Veterinary
[12] = test system: hepatocellular carcinoma (HepG2) cell line; conditions: cited from earlier work
[13] = test system: P. falciparum; conditions: cited from earlier work
[14] = test system: Leishmania donovani (amastigotes); conditions: cited from earlier work
[15] = test system: T. b. brucei; conditions: ref Duffy et al., 2017; read-out: EC50 T. brucei brucei; cited from earlier work
[16] = test system: T. cruzi; design: method as in Duffy et al., 2017; conditions: ref Duffy et al., 2017; cited from earlier work
[17] = test system: Candida albicans Biofilm; design: method as in Vila and Lopez-Ribot, 2017; conditions: ref Vila and Lopez-Ribot, 2017; read-out: EC50 Candida albicans Biofilm Inhibitor; cited from earlier work
[18] = test system: T. cruzi; conditions: Table 3, thiazolidene hydrazines; ref [13],[16],[19],[23],[25]; read-out: EC50 ± SD T. cruzi; cited from earlier work
[19] = test system: L. infantum reference strain (MHOM/BR/2002/LPC-RPV); conditions: cited from earlier work
[20] = test system: L. infantum veterinary isolate (MCAN_UY_2015_gPL8); conditions: cited from earlier work
[21] = test system: L. braziliensis; conditions: Table 3, thiazolidene hydrazines; ref [13],[16],[19],[23],[25]; read-out: EC50 ± SD L. brazils; cited from earlier work
[22] = test system: J774.1 murine macrophages; assay: Nonspecific cytotoxicity in murine macrophages (MTT); conditions: Mus musculus, J774.1, read-out: EC50 ± SD MΦ
Experimental: as §1

[23] = test system: L. amazonensis; assay: Growth inhibition of L. amazonensis promastigotes (resazurin); conditions: EC50 mammalian cell line/EC50 L. amazonensis

**Q.** With `COc1cccc(-n2nnnc2S(C)(=O)=O)c1` [MMV272144, 1-(3-Methoxyphenyl)-5-(methylsulfonyl)-1H-tetrazole] as the compound, how does the EC50 [1] read?
**A.** 15 µM

**Q.** And the EC50 [2]?
**A.** 10 µM

**Q.** What about the EC50 [3] of the same compound?
**A.** 12.5 µM

**Q.** What about the EC50 [4] of the same compound?
**A.** 1.3 µM

**Q.** And the EC50 [5]?
**A.** 1.8 µM

**Q.** What about the EC50 [6] of the same compound?
**A.** 6.6 µM

**Q.** What about the EC50 [7] of the same compound?
**A.** 3.1 µM

**Q.** And the in vivo absorption [8]?
**A.** low

**Q.** And the metabolic stability [8]?
**A.** low

**Q.** What about the EC50 at 48 h [9] of the same compound?
**A.** > 50 µM

**Q.** And the “Selectivity Index MΦ/Reference” value [10]?
**A.** >21

**Q.** What about the EC50 [10] of the same compound?
**A.** 2.4 ± 0.3 µM

**Q.** And the “Selectivity Index MΦ/Veterinary” value [11]?
**A.** >42

**Q.** What about the EC50 [11] of the same compound?
**A.** 1.2 ± 0.1 µM

**Q.** For `c1ccc(-c2nc(NC3CCCCC3)cc(C3CC3)n2)nc1` [MMV021013, N-Cyclohexyl-6-cyclopropyl-2-pyridin-2-ylpyrimidin-4-amine], which EC50 ([12]; ref Peña et al., 2015, read-out: EC50 HepG2 human cell line) is on record?
**A.** 400 µM

**Q.** And the EC50 ([13]; ref Ballell et al., 2013, read-out: EC50 P. falciparum)?
**A.** 0.7 µM

**Q.** What about the EC50 ([14]; ref Peña et al., 2015) of the same compound?
**A.** 0.8 µM

**Q.** And the “activity against the L. donovani form found in a mammalian host” value ([14]; ref [23],[24])?
**A.** significant activity

**Q.** What about the EC50 [15] of the same compound?
**A.** 3.5 µM

**Q.** What about the EC50 [16] of the same compound?
**A.** 1.7 µM

**Q.** What about the EC50 at 48 h [9] of the same compound?
**A.** > 50 µM

**Q.** And the “Selectivity Index MΦ/Reference” value [10]?
**A.** >125

**Q.** And the EC50 [10]?
**A.** 0.4 ± 0.1 µM

**Q.** What about the “Selectivity Index MΦ/Veterinary” value [11] of the same compound?
**A.** >167

**Q.** What about the EC50 [11] of the same compound?
**A.** 0.3 ± 0.1 µM

**Q.** What does the source list for `Cc1[nH]c2ccccc2c1[C@H](c1cccs1)N1CCN(C)CC1` [MMV688768, 2-Methyl-3-[(R)-(4-methylpiperazin-1-yl)-thiophen-2-ylmethyl]-1H-indole]?
**A.** EC50 [17]: 3.1 µM; EC50 ([12]; ref Vila and Lopez-Ribot, 2017, read-out: EC50 HepG2 cell line): 32 µM; EC50 ([13]; ref Duffy et al., 2017, read-out: EC50 P. falciparum ABS activity): 4.7 µM; EC50 [15]: 1.5 µM; EC50 at 48 h [9]: > 50 µM; Selectivity Index MΦ/Reference [10]: >5; EC50 [10]: 9.8 ± 0.5 µM; Selectivity Index MΦ/Veterinary [11]: >7; EC50 [11]: 6.8 ± 0.1 µM

**Q.** For `CCCCCCCCCCCCCCCCOP(=O)([O-])OCC[N+](C)(C)C` [Miltefosine, reference compound], which EC50 [18] is on record?
**A.** 8 ± 2 µM

**Q.** And the EC50 ([19]; Miltefosine comparative data, ref [19], read-out: EC50 L. infantum Reference)?
**A.** 5.3 ± 0.1 µM

**Q.** And the EC50 ([19]; Table 3, Miltefosine control, footnote f, ref [13],[16],[19],[23],[25], read-out: EC50 ± SD Lin–Ref)?
**A.** 5.3 ± 0.1 µM

**Q.** And the EC50 ([20]; Miltefosine comparative data, ref [19], read-out: EC50 L. infantum Veterinary)?
**A.** 4.1 ± 0.1 µM

**Q.** And the EC50 ([20]; Table 3, Miltefosine control, footnote f, ref [13],[16],[19],[23],[25], read-out: EC50 ± SD Lin–Vet)?
**A.** 4.1 ± 0.1 µM

**Q.** What about the EC50 [21] of the same compound?
**A.** 5 ± 2 µM

**Q.** What about the EC50 at 48 h [9] of the same compound?
**A.** 50 ± 7 µM

**Q.** And the EC50 [22]?
**A.** 50 ± 7 µM

**Q.** And the “Selectivity Index MΦ/L. amaz” value [23]?
**A.** 10

**Q.** What about the “Selectivity Index MΦ/Reference” value [10] of the same compound?
**A.** 10

**Q.** And the “Selectivity Index MΦ/Veterinary” value [11]?
**A.** 12

**Q.** And the “Selectivity Index MΦ/Lin–Vet” value ([11]; EC50 mammalian cell line/EC50 L. infantum veterinary isolate)?
**A.** 10
